Laboratory results: patent US9624239B2, “Protein kinase inhibitors” (Pharmascience Inc., priority 2011, dated 2017)

What was measured:
mouse splenocytes = assay: Splenic cell proliferation assay (anti-IgM stimulated B cell proliferation, Cell Titer-Glo); assay type: cell-based; conditions: Splenocyte; CD1 mouse splenocytes, 1 h pre-treatment, 2.5 ug/ml anti-IgM F(ab')2 for 72 h; read-out: EC50 (nM), Inhibition of splenic cell proliferation
Description: Splenic Cell Proliferation Assay
Splenocytes were obtained from 6 week old male CD1 mice (Charles River Laboratories Inc.). Mouse spleens were manually disrupted in PBS and filtered using a 70 μm cell strainer followed by ammonium chloride red blood cell lysis. Cells were washed, resuspended in Splenocyte Medium (HyClone RPMI supplemented with 10% heat-inactivated FBS, 0.5× non-essential amino acids, 10 mM HEPES, 50 uM beta mercaptoethanol) and incubated at 37° C., 5% CO2 for 2 h to remove adherent cells. Suspension cells were seeded in 96 well plates at 50,000 cells per well and incubated at 37° C., 5% CO2 for 1 h. Splenocytes were pre-treated in triplicate with 10,000 nM curves of Formula 1 compounds for 1 h, followed by stimulation of B cell proliferation with 2.5 ug/ml anti-IgM F(ab′)2 (Jackson ImmunoResearch) for 72 h. Cell proliferation was measured by Cell Titer-Glo Luminescent Assay (Promega). EC50 values (50% proliferation in the presence of compound as compared to vehicle treated controls) were calculated from dose response compound curves using GraphPad Prism Software.
EC50 values are reported in Table 4: • a—Less than 100 nM; b—less than 1000 nM; c—more than 1000 nM

[1] = molecular target: T1, histidine tagged recombinant human full-length Bruton Agammaglobulinemia Tyrosine Kinase (Btk) (Homo sapiens, UniProt Q06187); assay: Btk kinase inhibition assay (fluorescence polarization, KinEASE FP Fluorescein Green); assay type: biochemical; conditions: 10 μM ATP, 250 μM substrate, 60 minutes, room temperature; Ki from IC50 by Cheng-Prusoff; read-out: ki50 (nM), Inhibition of Btk
T1 construct: recombinant human full-length Bruton Agammaglobulinemia Tyrosine Kinase (Btk); histidine tag
Description: (§1) Kinase Binding Btk and Lck Kinase Inhibition Assay
(§2) Fluorescence polarization-based kinase assays were performed in 384 well-plate format using histidine tagged recombinant human full-length Bruton Agammaglobulinemia Tyrosine Kinase (Btk) or histidine tagged recombinant Human Lymphocyte-Specific Protein Tyrosine Kinase (Lck) and a modified protocol of the KinEASE™ FP Fluorescein Green Assay supplied from Millipore. Kinase reaction were performed at room temperature for 60 minutes in presence of 250 μM substrate, 10 μM ATP and variable test article concentrations. The reaction was stopped with EDTA/kinease detection reagents and the polarization measured on a Tecan 500 instrument. From the dose-response curve obtained, the IC50 was calculated using Graph Pad Prisms® using a non-linear fit curve. The Km for ATP on each enzyme was experimentally determined and the Ki values calculated using the Cheng-Prusoff equation (see: Cheng Y, Prusoff W H. (1973) Relationship between the inhibition constant (K1) and the concentration of inhibitor which causes 50 percent inhibition (I50) of an enzymatic reaction”. Biochem Pharmacol 22 (23): 3099-108).
(§3) ki values are reported in Tables 2 and 3: • a—Less than 100 nM; b—less than 1000 nM; c—more than 1000 nM

[2] = molecular target: T2, histidine tagged recombinant Human Lymphocyte-Specific Protein Tyrosine Kinase (Lck) (Homo sapiens, UniProt P06239); assay: Lck kinase inhibition assay (fluorescence polarization, KinEASE FP Fluorescein Green); assay type: biochemical; conditions: 10 μM ATP, 250 μM substrate, 60 minutes, room temperature; Ki from IC50 by Cheng-Prusoff
T2 construct: histidine tag
Description: as §1, §2, §3

T1 sequence (Q06187 whole entry): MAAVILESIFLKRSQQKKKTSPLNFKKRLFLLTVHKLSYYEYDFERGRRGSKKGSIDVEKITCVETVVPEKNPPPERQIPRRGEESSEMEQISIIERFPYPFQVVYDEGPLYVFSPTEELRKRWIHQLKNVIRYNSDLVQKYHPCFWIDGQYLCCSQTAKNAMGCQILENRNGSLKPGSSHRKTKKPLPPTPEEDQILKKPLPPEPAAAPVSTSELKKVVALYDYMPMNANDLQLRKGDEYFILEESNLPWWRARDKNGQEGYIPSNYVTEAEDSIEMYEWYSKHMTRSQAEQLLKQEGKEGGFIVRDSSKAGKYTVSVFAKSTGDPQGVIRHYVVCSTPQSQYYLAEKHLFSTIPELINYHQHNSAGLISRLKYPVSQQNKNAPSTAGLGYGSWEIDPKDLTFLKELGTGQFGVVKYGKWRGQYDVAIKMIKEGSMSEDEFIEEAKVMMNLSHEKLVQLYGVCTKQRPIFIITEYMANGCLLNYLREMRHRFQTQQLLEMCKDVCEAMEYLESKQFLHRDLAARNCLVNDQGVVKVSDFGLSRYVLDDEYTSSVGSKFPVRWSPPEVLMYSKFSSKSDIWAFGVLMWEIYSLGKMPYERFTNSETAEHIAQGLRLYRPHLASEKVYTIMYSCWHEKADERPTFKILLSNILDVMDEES
T2 sequence (P06239 whole entry): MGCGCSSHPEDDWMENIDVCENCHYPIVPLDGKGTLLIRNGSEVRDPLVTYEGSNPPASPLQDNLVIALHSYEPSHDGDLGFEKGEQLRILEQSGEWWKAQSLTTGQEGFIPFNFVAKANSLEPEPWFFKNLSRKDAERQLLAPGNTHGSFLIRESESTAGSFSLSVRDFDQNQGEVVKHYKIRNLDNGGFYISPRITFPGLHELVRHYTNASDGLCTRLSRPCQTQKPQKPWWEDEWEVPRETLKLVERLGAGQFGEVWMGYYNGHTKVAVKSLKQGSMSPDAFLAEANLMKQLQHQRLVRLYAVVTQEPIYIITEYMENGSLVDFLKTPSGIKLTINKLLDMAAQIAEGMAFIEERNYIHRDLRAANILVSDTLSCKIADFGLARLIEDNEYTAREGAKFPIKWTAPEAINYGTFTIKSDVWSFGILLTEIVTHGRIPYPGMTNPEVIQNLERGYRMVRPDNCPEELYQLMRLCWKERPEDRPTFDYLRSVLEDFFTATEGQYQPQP

| Structure (SMILES) | EC50 (mouse splenocytes) [nM] | Ki [1] [nM] | Ki [2] [nM] |
| --- | --- | --- | --- |
| Nc1ncnc2c3c(n(-c4ccc(Oc5ccc(F)cc5)cc4)c12)CCC3 [Compound 2] | > 1000 | > 1000 | > 1000 |
| Nc1ncnc2c3c(n(-c4ccc(Oc5ccc(Br)cc5)cc4)c12)CCC3 [Compound 3] | > 1000 | < 1000 | < 1000 |
| Nc1ncnc2c3c(n(-c4ccc(Oc5ccc(Cl)cc5)cc4)c12)CCC3 [Compound 4] | > 1000 | < 1000 | < 1000 |
| Nc1ncnc2c3c(n(-c4ccc(Oc5ccccc5)cc4)c12)CNC3 [Compound 7] | > 1000 | > 1000 | < 1000 |
| Nc1ncnc2c3c(n(-c4ccc(Oc5ccccc5)cc4)c12)CCCC3 [Compound 13] | > 1000 | < 1000 | < 1000 |
| CCN1Cc2c(n(-c3ccc(Oc4ccccc4)cc3)c3c(N)ncnc23)C1 [Compound 14] | > 1000 | > 1000 | < 1000 |
| CC1OCc2c1c1ncnc(N)c1n2-c1ccc(Oc2ccccc2)cc1 (stereo not drawn) [Compound 20] | 100 to 1000 | < 100 | < 100 |
| Nc1ncnc2c3c(n(-c4ccc(Oc5ccccc5)cc4)c12)COC3 [Compound 21] | > 1000 | < 1000 | < 100 |
| COc1cc(-n2c3c(c4ncnc(N)c42)CCC3)ccc1Oc1ccccc1 [Compound 23] | > 1000 | < 1000 | < 100 |
| CCC1OCc2c1c1ncnc(N)c1n2-c1ccc(Oc2ccccc2)cc1 (stereo not drawn) [Compound 24] | 100 to 1000 | < 1000 | < 100 |
| COc1cccc(Oc2ccc(-n3c4c(c5ncnc(N)c53)C(C)OC4)cc2)c1 (stereo not drawn) [Compound 25] | 100 to 1000 | < 100 | < 100 |
| Nc1ncnc2c3c(n(-c4ccc(Oc5ccccc5)cc4)c12)COC3CCCOCc1ccccc1 (stereo not drawn) [Compound 26] | > 1000 | > 1000 | < 1000 |
| Nc1ncnc2c3c(n(-c4ccc(Oc5ccccc5)cc4)c12)COC3CCCO (stereo not drawn) [Compound 27] | > 1000 | < 1000 | < 100 |
| COc1ccccc1Oc1ccc(-n2c3c(c4ncnc(N)c42)C(C)OC3)cc1 (stereo not drawn) [Compound 28] | > 1000 | < 1000 | < 1000 |
| CC1OCc2c1c1ncnc(N)c1n2-c1ccc(Oc2cccc(C(F)(F)F)c2)cc1 (stereo not drawn) [Compound 29] | 100 to 1000 | < 1000 | < 1000 |
| Nc1ncnc2c3c(n(-c4ccc(Oc5ccccc5)cc4)c12)COC3c1ccccc1 (stereo not drawn) [Compound 30] | > 1000 | < 100 | < 1000 |
| CC1OCc2c1c1ncnc(N)c1n2-c1ccc(Oc2cccc(Cl)c2)cc1 (stereo not drawn) [Compound 31] | 100 to 1000 | < 1000 | < 100 |
| CC1OCc2c1c1ncnc(N)c1n2-c1ccc(Oc2ccccc2C(F)(F)F)cc1 (stereo not drawn) [Compound 32] | 100 to 1000 | < 1000 | < 1000 |
| CC1OCc2c1c1ncnc(N)c1n2-c1ccc(Oc2ccccc2Cl)cc1 (stereo not drawn) [Compound 33] | 100 to 1000 | < 1000 | < 100 |
| CC1OCc2c1c1ncnc(N)c1n2-c1ccc(Oc2ccccc2F)cc1 (stereo not drawn) [Compound 34] | > 1000 | < 100 | < 100 |
| CC1OCc2c1c1ncnc(N)c1n2-c1ccc(Oc2cccc(F)c2)cc1 (stereo not drawn) [Compound 35] | > 1000 | < 1000 | < 1000 |
